The record followed here is ChEMBL document CHEMBL1147811, “Synthesis of EF24-tripeptide chloromethyl ketone: a novel curcumin-related anticancer drug delivery system” (J Med Chem, 2006).

The structures appear in SMILES notation. A value given as a limit tells only on which side of the number the result lay.

Series [1] in a line: Viability of human non-TF expressing MCF10 cell line. The format is cell-based. The conditions noted are these: MCF10 cells (non-TF expressing).
In series [2] the test system is RPMI-7951. Description: Viability of human TF expressing RPMI7951 cell line. In kind it is cell-based.
The test system of series [3] is Melanocyte. Description: Viability of human non-TF expressing melanocytes. The format is cell-based.
The next series concerns MDA-MB-231. Description: Viability of human TF expressing MDA-MB-231 cell line. In kind it is cell-based.
Series [4] relates to Melanocyte. Description: Cytotoxicity against human non-TF expressing melanocytes at 4 uM. In kind it is functional, cell-based.
The subject of series [5] is RPMI-7951. Description: Cytotoxicity against human TF expressing RPMI7951 cell line at 2 uM. In kind it is functional, cell-based.

By viability is commonly meant the share of living cells, or the viability signal relative to a control. Higher therefore signals better survival. As for `N=C(N)NCCC[C@H](NC(=O)[C@H](Cc1ccccc1)NC(=O)[C@H](Cc1ccccc1)NC(=O)CCC(=O)N1C/C(=C\c2ccccc2F)C(=O)/C(=C/c2ccccc2F)C1)C(=O)CCl.O=C(O)C(F)(F)F`, in series [1], the viability was greater than 95%. Besides, the Activity result in the series with RPMI-7951 [2], in the series with Melanocyte [3] and in the series on MDA-MB-231 was “Not Active” in each case.

Turning to `O=C1/C(=C/c2ccccc2F)CNC/C1=C\c1ccccc1F`, the Activity result with Melanocyte [4] and in the series with RPMI-7951 [5] was “Toxic” in each case.
